In this assay the test system is MAGI cell cytotoxicity, 2% serum. The experiment in a line: viability loss in MAGI reporter cells – cell-based, CXCR4-tropic MAGI assay, 2% serum, set 2, cytotoxicity control for HIV-1 antiviral lead project, dose response (AID 504575).

`COc1ccccc1Cn1c(O)cc2nn(-c3nc4ccccc4s3)c(=O)c-2c1C`: the TC50 is 43.2 µM. The figure for `Cc1c2c(=O)n(-c3nc4ccccc4s3)nc-2cc(O)n1CCc1cccs1` is 74.8 µM. On to `COc1ccc(CCn2c(O)cc3nn(-c4nc5ccccc5s4)c(=O)c-3c2C)cc1`, for which the TC50 was 13.8 µM. The figure for `Cc1c2c(=O)n(-c3nc4ccccc4s3)nc-2cc(O)n1CCC(C)C` is 65 µM; for `Cc1c2c(=O)n(-c3nc4ccccc4s3)nc-2cc(O)n1CCc1ccc(O)cc1` it is 20.5 µM. As to `Cc1c2c(=O)n(-c3nc4ccccc4s3)nc-2cc(O)n1Cc1ccccc1Cl`, the TC50 was 32.9 µM. The figure for `COc1ccc(Cn2c(O)cc3nn(-c4nc5ccccc5s4)c(=O)c-3c2C)cc1` is 41.1 µM.

The values above are taken from PubChem BioAssay AID504575 (Southern Research Specialized Biocontainment Screening …, 2011).
